Reference: ChEMBL document CHEMBL1155874, “Carbonic anhydrase activators: Activation of the human cytosolic isozyme III and membrane-associated isoform IV with amino acids and amines” (Bioorg Med Chem Lett, 2008)

Legend:
[1] = target: Carbonic anhydrase 3 (Homo sapiens) (UniProt P07451); test: Activation of human recombinant CA3 at 10 uM by stopped-flow CO2 hydration method
[2] = target: Carbonic anhydrase 4 (Homo sapiens) (UniProt P22748); test: Activation of human recombinant truncated CA4 at 10 uM by stopped-flow CO2 hydration method
Sequence of Carbonic anhydrase 4 (Homo sapiens) (P22748 whole entry, the tested form may be a part): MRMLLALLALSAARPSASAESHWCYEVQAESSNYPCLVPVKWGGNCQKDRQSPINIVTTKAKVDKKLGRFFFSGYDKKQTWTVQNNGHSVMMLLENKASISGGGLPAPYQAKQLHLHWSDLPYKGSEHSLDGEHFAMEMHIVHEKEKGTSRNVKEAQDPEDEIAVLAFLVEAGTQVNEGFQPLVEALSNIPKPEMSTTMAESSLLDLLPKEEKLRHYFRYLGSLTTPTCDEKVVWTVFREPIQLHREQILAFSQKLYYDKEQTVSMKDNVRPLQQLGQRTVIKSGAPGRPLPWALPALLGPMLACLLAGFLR

[3] = test system: N[C@H](Cc1c[nH]cn1)C(=O)O; test: (§1) Activity of human recombinant CA2 at 10 uM stopped-flow CO2 hydration method
[4] = test system: N[C@@H](Cc1c[nH]cn1)C(=O)O; test: as §1
[5] = test system: N[C@H](Cc1c[nH]cn1)C(=O)O; test: (§2) Activity of human recombinant CA1 at 10 uM by stopped-flow CO2 hydration method
[6] = test system: N[C@@H](Cc1c[nH]cn1)C(=O)O; test: as §2
[7] = target: Carbonic anhydrase 1 (Homo sapiens) (UniProt P00915); test: Activation of human recombinant CA1 at 10 uM by stopped-flow CO2 hydration method
Sequence of Carbonic anhydrase 1 (Homo sapiens) (P00915 2-261 limits assumed): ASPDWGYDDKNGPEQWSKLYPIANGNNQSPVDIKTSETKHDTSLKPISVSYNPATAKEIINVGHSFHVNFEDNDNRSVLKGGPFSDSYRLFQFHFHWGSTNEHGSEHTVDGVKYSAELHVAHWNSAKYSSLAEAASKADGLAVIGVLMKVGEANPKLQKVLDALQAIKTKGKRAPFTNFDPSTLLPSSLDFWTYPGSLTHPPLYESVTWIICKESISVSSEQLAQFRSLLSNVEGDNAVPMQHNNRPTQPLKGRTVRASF

[8] = target: Carbonic anhydrase 2 (Homo sapiens) (UniProt P00918); test: Activation of human recombinant CA2 at 10 uM by stopped-flow CO2 hydration method

Sequence of Carbonic anhydrase 3 (Homo sapiens) (P07451 whole entry, the tested form may be a part): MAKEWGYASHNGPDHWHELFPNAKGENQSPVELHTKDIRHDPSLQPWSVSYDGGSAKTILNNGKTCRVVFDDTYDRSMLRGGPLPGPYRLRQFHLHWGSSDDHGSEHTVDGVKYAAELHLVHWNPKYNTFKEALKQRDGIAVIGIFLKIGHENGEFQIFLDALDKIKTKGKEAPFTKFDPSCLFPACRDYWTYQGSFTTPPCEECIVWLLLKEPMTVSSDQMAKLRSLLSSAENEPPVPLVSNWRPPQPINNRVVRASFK
Sequence of Carbonic anhydrase 1 (Homo sapiens), P00915 (P00915 whole entry): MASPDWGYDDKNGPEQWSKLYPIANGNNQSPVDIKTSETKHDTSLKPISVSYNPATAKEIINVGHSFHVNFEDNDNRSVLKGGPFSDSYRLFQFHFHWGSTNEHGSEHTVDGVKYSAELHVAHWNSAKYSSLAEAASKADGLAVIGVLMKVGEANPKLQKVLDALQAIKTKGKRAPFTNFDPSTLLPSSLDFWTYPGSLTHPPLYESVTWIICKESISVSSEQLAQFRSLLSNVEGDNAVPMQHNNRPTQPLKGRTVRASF

Compound | Ka [1] [µM] | Ka [2] [µM] | further results
N[C@H](Cc1ccc(O)c(O)c1)C(=O)O | 28.7 | 34.7 | 
NCc1ccccn1 | 1.03 | 5.19 | 
Carbonic anhydrase 2 (Homo sapiens) (from UniProt P00918) |  |  | kcat [3]: 2.7 ×10⁶ /s; kcat [4]: 4.3 ×10⁶ /s
NCCN1CCNCC1 | 0.32 | 24.9 | 
N[C@@H](Cc1c[nH]c2ccccc12)C(=O)O | 20.5 | 37.1 | 
NCCN1CCOCC1 | 0.091 | 1.3 | 
Carbonic anhydrase 1 (Homo sapiens), P00915 |  |  | kcat [5]: 9.1 ×10⁵ /s; kcat [6]: 13.4 ×10⁵ /s
NCCc1c[nH]c2ccc(O)cc12 | 0.78 | 3.14 | 
N[C@@H](Cc1c[nH]cn1)C(=O)O | 35.9 | 7.3 | 
N[C@@H](Cc1ccc(O)c(O)c1)C(=O)O | 13.5 | 15.3 | 
N[C@@H](Cc1ccc(O)cc1)C(=O)O | 34.1 | 25.1 | 
N[C@H](Cc1c[nH]c2ccccc12)C(=O)O | 19 | 39.6 | 
NCCc1c[nH]cn1 | 36.9 | 25.3 | Ka [7]: 2.1 µM
Nc1ccc(C[C@H](N)C(=O)O)cc1 | 43.2 | 0.079 | 
CNCC(O)c1ccc(O)c(O)c1 (single isomer, unassigned) | 36.4 | 45 | Ka [7]: 0.09 µM; Ka [8]: 96 µM
NCCc1ccc(O)c(O)c1 | 33.2 | 30.9 | 
NCCc1ccccn1 | 1.1 | 7.13 | 
N[C@H](Cc1c[nH]cn1)C(=O)O | 1.12 | 12.3 | 
